Results: patent US8476298B2 (Exelixis, Inc., priority 2003, dated 2013)
Where two headings read alike, the source gives them in different places.

Tests used:
[1] = biological target: T1, KDR (baculovirus expressed human KDR kinase domain D807-V1356) (Homo sapiens, UniProt P35968); experiment: biochemical;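 note: Luciferase-coupled chemiluminescent kinase assay, activity read as percent ATP left after 4 h reaction at ambient temperature, ATP near KM, 10-point dose-response in 384-well plates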
T1 construct: human KDR kinase domain D807-V1356; host or cells: baculovirus expression

[2] = biological target: T2, Flt-4 (baculovirus expressed human Flt-4 kinase domain D725-R1298) (Homo sapiens, UniProt P35916); experiment: flt-4 Alphascreen Tyrosine Kinase assay; format: biochemical;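 note: AlphaScreen chemiluminescence read-out of biotinylated poly(Glu,Tyr) 4:1 phosphorylation via streptavidin donor and PY100 anti-phosphotyrosine acceptor beads, ATP near KM, 1 hr kinase reaction, 10-point dose-response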
T2 construct: human Flt-4 kinase domain D725-R1298; host or cells: baculovirus expression

[3] = biological target: T3, c-Met (baculovirus expressed human c-Met kinase domain P948-S1343) (Homo sapiens, UniProt P08581); experiment: c-Met Luciferase-Coupled Chemiluminescent Kinase assay (LCCA); format: biochemical;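 note: kinase activity read as percent ATP left after reaction, by luciferase-luciferin chemiluminescence, with 1 µM ATP and 1 µM poly-EY substrate, 2 h at ambient temperature, 10-point dose-response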
T3 construct: human c-Met kinase domain P948-S1343; host or cells: baculovirus expression
Method: Kinase activity and compound inhibition are investigated using one or more of the three assay formats described below. The ATP concentrations for each assay are selected to be close to the Michaelis-Menten constant (KM) for each individual kinase. Dose-response experiments are performed at 10 different inhibitor concentrations in a 384-well plate format. […] Typically H is close to unity. c-Met Assay
c-Met biochemical activity was assessed using a Luciferase-Coupled Chemiluminescent Kinase assay (LCCA) format as described above. Again, kinase activity was measured as the percent ATP remaining following the kinase reaction. Remaining ATP was detected by luciferase-luciferin-coupled chemiluminescence. Specifically, the reaction was initiated by mixing test compounds, 1 μM ATP, 1 μM poly-EY and 10 nM c-Met (baculovirus expressed human c-Met kinase domain P948-S1343) in a 20 uL assay buffer (20 mM Tris-HCL pH7.5, 10 mM MgCl2, 0.02% Triton X-100, 100 mM DTT, 2 mM MnCu2). The mixture is incubated at ambient temperature for 2 hours after which 20 uL luciferase-luciferin mix is added and the chemiluminescent signal read using a Wallac Victor^2 reader.

c-Kit kinase = c-Kit kinase (Homo sapiens, UniProt P10721); experiment: c-Kit AlphaScreen kinase assay; format: biochemical;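 note: c-Kit kinase phosphorylating biotinylated poly(Glu,Tyr), ATP near its KM, 1 h reaction at ambient temperature, AlphaScreen chemiluminescence with streptavidin donor and anti-phosphotyrosine acceptor beads, 10-point inhibitor titration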
Method: Kinase activity and compound inhibition are investigated using one or more of the three assay formats described below. The ATP concentrations for each assay are selected to be close to the Michaelis-Menten constant (KM) for each individual kinase. Dose-response experiments are performed at 10 different inhibitor concentrations in a 384-well plate format.
AlphaScreen™ (Perkin Elmer) technology is a proximity assay employing microparticles. Singlet oxygen derived from a donor bead following laser excitation results in chemiluminescence when in proximity (100 Å) to an acceptor bead due to biomolecular interactions.
c-Kit biochemical activity was assessed using AlphaScreen™ (Perkin Elmer) technology, described above. Test compounds, ATP, biotinylated poly(Glu, Tyr) and c-Kit kinase were combined in a volume of 20 μL in a 384-well white, medium binding microtiter plate (Greiner). Reaction mixtures were incubated for 1 hr at ambient temperature. […] After 16 hr incubation at ambient temperature plates were read using an AlphaQuest reader (Perkin Elmer).

[4] = biological target: T4, Flt-3 (baculovirus expressed human Flt-3 kinase domain R571-S993) (Homo sapiens, UniProt P36888); experiment: biochemical; details: read-out: flt3 IC50;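 note: Luciferase-coupled chemiluminescent kinase assay, activity read as percent ATP left after a 3 h reaction at room temperature, ATP near KM, 10-point dose-response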
T4 construct: human Flt-3 kinase domain R571-S993; host or cells: baculovirus expression
T4 sequence (P36888 571-993): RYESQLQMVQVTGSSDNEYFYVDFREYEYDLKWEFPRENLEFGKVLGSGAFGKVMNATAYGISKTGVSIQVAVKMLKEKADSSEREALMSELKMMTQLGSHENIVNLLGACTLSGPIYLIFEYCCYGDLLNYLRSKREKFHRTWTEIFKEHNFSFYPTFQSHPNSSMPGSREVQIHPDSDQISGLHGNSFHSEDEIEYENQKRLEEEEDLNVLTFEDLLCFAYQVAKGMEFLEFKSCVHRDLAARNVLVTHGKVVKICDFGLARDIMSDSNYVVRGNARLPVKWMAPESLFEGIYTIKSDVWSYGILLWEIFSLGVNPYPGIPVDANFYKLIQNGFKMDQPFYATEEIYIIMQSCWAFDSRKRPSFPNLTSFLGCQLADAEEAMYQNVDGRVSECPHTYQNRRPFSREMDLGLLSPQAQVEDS

[5] = Table 4, inhibition as IC50 class
[6] = Table 4, inhibition as IC50 class, read-out: flt4 IC50

T1 sequence (P35968 807-1356): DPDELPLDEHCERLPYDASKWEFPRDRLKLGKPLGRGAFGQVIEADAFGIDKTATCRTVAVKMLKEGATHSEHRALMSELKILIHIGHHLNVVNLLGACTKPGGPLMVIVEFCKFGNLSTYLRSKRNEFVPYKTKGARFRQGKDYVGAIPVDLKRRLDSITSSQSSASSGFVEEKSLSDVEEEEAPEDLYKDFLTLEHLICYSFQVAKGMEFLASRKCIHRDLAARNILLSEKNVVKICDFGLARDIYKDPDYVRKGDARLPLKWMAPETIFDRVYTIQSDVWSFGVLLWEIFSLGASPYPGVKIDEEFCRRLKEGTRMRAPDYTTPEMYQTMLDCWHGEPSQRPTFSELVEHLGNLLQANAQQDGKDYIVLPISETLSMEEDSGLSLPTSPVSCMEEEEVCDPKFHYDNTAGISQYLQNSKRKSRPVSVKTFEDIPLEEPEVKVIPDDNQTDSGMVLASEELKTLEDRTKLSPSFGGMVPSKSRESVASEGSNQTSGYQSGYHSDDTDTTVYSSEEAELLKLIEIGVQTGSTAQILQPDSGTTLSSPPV
c-Kit kinase, sequence (P10721 26-976): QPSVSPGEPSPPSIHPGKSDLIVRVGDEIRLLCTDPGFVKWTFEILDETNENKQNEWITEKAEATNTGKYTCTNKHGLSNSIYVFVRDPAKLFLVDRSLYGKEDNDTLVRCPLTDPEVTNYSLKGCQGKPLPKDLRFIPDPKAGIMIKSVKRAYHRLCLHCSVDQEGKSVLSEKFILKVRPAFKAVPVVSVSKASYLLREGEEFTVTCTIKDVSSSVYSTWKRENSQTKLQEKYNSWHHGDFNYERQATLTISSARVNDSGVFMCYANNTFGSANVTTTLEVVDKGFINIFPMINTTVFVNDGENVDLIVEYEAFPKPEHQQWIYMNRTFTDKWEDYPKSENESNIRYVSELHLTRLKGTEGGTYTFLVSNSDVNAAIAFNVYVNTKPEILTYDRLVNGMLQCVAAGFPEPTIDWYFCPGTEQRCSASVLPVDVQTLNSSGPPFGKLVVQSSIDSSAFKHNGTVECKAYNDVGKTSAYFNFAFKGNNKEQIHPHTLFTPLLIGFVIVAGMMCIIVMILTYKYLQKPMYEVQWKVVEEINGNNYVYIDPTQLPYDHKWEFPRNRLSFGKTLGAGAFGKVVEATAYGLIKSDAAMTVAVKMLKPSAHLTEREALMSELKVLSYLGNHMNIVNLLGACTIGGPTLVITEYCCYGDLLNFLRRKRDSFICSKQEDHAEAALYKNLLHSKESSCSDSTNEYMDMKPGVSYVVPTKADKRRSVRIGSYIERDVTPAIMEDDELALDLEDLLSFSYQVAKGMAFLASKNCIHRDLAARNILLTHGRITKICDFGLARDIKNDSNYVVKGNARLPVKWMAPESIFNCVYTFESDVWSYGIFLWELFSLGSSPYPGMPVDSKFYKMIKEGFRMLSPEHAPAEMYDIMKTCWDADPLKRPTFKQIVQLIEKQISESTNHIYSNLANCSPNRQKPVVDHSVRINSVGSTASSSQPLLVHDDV
T2 sequence (P35916 725-1298 isoform P35916-1): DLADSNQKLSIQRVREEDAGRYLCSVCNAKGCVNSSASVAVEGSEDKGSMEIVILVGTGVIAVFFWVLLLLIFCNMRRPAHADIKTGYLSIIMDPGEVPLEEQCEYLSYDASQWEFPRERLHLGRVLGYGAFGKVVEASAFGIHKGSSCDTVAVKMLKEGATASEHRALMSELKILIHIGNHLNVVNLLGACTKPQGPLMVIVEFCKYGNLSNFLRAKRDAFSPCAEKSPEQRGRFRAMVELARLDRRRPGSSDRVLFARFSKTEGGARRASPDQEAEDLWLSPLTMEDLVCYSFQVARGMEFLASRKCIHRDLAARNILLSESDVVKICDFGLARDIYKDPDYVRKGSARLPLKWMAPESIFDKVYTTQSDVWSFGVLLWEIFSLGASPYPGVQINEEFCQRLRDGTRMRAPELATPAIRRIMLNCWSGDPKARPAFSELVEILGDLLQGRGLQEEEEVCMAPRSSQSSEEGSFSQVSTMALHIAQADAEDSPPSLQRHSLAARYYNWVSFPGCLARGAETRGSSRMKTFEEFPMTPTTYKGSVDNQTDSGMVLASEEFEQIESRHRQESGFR
T3 sequence (P08581 1011-1343 limits assumed): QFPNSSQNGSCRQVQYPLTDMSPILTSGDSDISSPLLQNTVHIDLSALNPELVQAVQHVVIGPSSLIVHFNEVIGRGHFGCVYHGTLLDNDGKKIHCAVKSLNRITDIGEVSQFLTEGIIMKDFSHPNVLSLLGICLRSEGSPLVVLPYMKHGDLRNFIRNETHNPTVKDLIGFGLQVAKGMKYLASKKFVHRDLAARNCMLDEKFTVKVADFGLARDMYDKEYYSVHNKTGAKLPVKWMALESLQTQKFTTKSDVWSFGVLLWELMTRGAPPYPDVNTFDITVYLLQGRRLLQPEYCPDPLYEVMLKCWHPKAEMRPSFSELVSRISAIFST

Row | SMILES | IC50 [1] [nM] | IC50 ([2]; read-out: flt4 IC50) [nM] | IC50 [3] [nM] | IC50 (c-Kit kinase) [nM] | IC50 [4] [nM] | IC50 [3, 5] [nM] | IC50 [1, 5] [nM] | IC50 [2, 6] [nM] | IC50 [4, 5] [nM] | IC50 (c-Kit kinase; [5]) [nM] | IC50 [2] [nM]
1 | COc1cc2c(Oc3ccc(NC(=S)NC(=O)Cc4ccccc4)cc3F)ncnc2cc1OCC1C[C@H]2CNC[C@H]2C1 (some centres unmarked) [Entry 1] | < 50 | < 50 |  |  |  |  |  |  |  |  | 
2 | COc1cc2c(Oc3ccc(NC(=S)NC(=O)Cc4ccccc4)cc3F)ncnc2cc1OCC1C[C@@H]2CN(C)C[C@@H]2C1 (some centres unmarked) [Entry 2] | < 50 | < 50 | < 50 | < 50 |  |  |  |  |  |  | 
3 | COc1cc2nccc(Oc3ccc(NC(=O)C(=O)N[C@@H]4CCc5ccccc5C4)cc3F)c2cc1OC [Entry 71] | > 5000 | 500 to 5000 | 50 to 500 | 50 to 500 |  |  |  |  |  |  | 
4 | COc1cc2nccc(Oc3ccc(NC(=O)C(=O)NCCOc4ccccc4)cc3F)c2cc1OC [Entry 73] | 50 to 500 | 500 to 5000 | 50 to 500 | 50 to 500 |  |  |  |  |  |  | 
5 | COc1cc2nccc(Oc3ccc(N4CC(Cc5ccccc5)N(S(=O)(=O)c5ccc(C)cc5)C4=O)cc3)c2cc1OC (centres unmarked) [Example 112, 1-(4-{[6,7-bis(methyloxy)quinolin-4-yl]oxy}phenyl)-3-[(4-methylphenyl)sulfonyl]-4-(phenylmethyl)imidazolidin-2-one] | 500 to 5000 | 500 to 5000 | 50 to 500 | 50 to 500 | 500 to 5000 |  |  |  |  |  | 
6 | COc1cc2c(Oc3ccc(NC(=O)C(=O)NCc4ccc(F)c(C(F)(F)F)c4)cc3F)ccnc2cc1OCC1CCNCC1 [Example 216, N-[3-fluoro-4-({6-(methyloxy)-7-[(piperidin-4-ylmethyl)oxy]quinolin-4-yl}oxy)phenyl]-N′-{[4-fluoro-3-(trifluoromethyl)phenyl]methyl}ethanediamide] |  |  |  |  |  | < 50 | < 50 | < 50 | < 50 | 50 to 500 | 
7 | COc1cc2c(Oc3ccc(NC(=O)C(=O)NCc4cc(Cl)cc(Cl)c4)cc3F)ccnc2cc1OCC1CCNCC1 [Example 217, N-[(3,5-dichlorophenyl)methyl]-N′-[3-fluoro-4-({6-(methyloxy)-7-[(piperidin-4-ylmethyl)oxy]quinolin-4-yl}oxy)phenyl]ethanediamide] |  |  |  |  |  | < 50 | < 50 | < 50 | < 50 | < 50 | 
8 | COc1cc2c(Oc3ccc(NC(=O)C(=O)N[C@@H]4CCCc5ccccc54)cc3F)ccnc2cc1OCC1CCNCC1 [Example 218, N-[3-fluoro-4-({6-(methyloxy)-7-[(piperidin-4-ylmethyl)oxy]quinolin-4-yl}oxy)phenyl]-N′-[(1R)-1,2,3,4-tetrahydronaphthalen-1-yl]ethanediamide] |  |  |  |  |  | < 50 | 50 to 500 | < 50 | 50 to 500 | 50 to 500 | 
9 | COc1cc2c(Oc3ccc(NC(=O)C(=O)N[C@H]4CCCc5ccccc54)cc3F)ccnc2cc1OCC1CCNCC1 [Example 219, N-[3-fluoro-4-({6-(methyloxy)-7-[(piperidin-4-ylmethyl)oxy]quinolin-4-yl}oxy)phenyl]-N′-[(1S)-1,2,3,4-tetrahydronaphthalen-1-yl]ethanediamide] |  |  |  |  |  | < 50 | < 50 | < 50 | < 50 | < 50 | 
10 | COc1cc2c(Oc3ccc(NC(=O)C(=O)NC4CCCC4)cc3F)ccnc2cc1OCC1CCNCC1 [Example 220, N-cyclopentyl-N′-[3-fluoro-4-({6-(methyloxy)-7-[(piperidin-4-ylmethyl)oxy]quinolin-4-yl}oxy)phenyl]ethanediamide] |  |  |  |  |  | < 50 | 50 to 500 | 50 to 500 | 50 to 500 | 50 to 500 | 
11 | COc1cc2c(Oc3ccc(NC(=O)C(=O)NC(C)c4ccc(Br)cc4)cc3F)ccnc2cc1OCC1CCNCC1 (centres unmarked) [Example 221, N-[1-(4-bromophenyl)ethyl]-N′-[3-fluoro-4-({6-(methyloxy)-7-[(piperidin-4-ylmethyl)oxy]quinolin-4-yl}oxy)phenyl]ethanediamide] |  |  |  |  |  | < 50 | 50 to 500 | 50 to 500 | 50 to 500 | 50 to 500 | 
12 | COc1cc2c(Oc3ccc(NC(=O)C(=O)NCc4cccc(F)c4F)cc3F)ccnc2cc1OCC1CCNCC1 [Example 225, N-[(2,3-difluorophenyl)methyl]-N′-[3-fluoro-4-({6-(methyloxy)-7-[(piperidin-4-ylmethyl)oxy]quinolin-4-yl}oxy)phenyl]ethanediamide] |  |  |  |  |  | < 50 | < 50 | < 50 | 50 to 500 | 50 to 500 | 
13 | COc1cc2c(Oc3ccc(NC(=O)C(=O)NCCOc4ccccc4)cc3F)ccnc2cc1OCC1CCNCC1 [Example 226, N-[3-fluoro-4-({6-(methyloxy)-7-[(piperidin-4-ylmethyl)oxy]quinolin-4-yl}oxy)phenyl]-N′-[2-(phenyloxy)ethyl]ethanediamide] |  |  |  |  |  | < 50 | < 50 | < 50 | < 50 | < 50 | 
14 | COc1cc2nccc(Oc3ccc(NC(=O)C(=O)NCC(c4ccccc4)N(C)C)cc3F)c2cc1OC (centres unmarked) [Example 235, N-(4-{[6,7-bis(methyloxy)quinolin-4-yl]oxy}-3-fluorophenyl)-N′-[2-(dimethylamino)-2-phenylethyl]ethanediamide] |  |  |  |  |  | 50 to 500 | 50 to 500 |  | < 50 | 50 to 500 | 
15 | COc1ccc(CNC(=O)C(=O)Nc2ccc(Oc3ccnc4cc(OCC5CCN(C)CC5)c(OC)cc34)c(F)c2)cc1 [Example 247, N-{3-fluoro-4-[(6-(methyloxy)-7-{[(1-methylpiperidin-4-yl)methyl]oxy}quinolin-4-yl)oxy]phenyl}-N′-{[4-(methyloxy)phenyl]methyl}ethanediamide] |  |  |  |  |  | < 50 | 50 to 500 |  | 50 to 500 | < 50 | 
16 | COc1cc2c(Oc3ccc(NC(=O)C(=O)NCC(O)c4ccccc4)cc3F)ccnc2cc1OCC1CCNCC1 (centres unmarked) [Example 251, N-[3-fluoro-4-({6-(methyloxy)-7-[(piperidin-4-ylmethyl)oxy]quinolin-4-yl}oxy)phenyl]-N′-(2-hydroxy-2-phenylethyl)ethanediamide] |  |  |  |  |  | 50 to 500 | 50 to 500 |  | 50 to 500 | 50 to 500 | 
17 | CC[C@H](NC(=O)C(=O)Nc1ccc(Oc2ccnc3cc(OCC4CCNCC4)c(OC)cc23)c(F)c1)c1ccccc1 [Example 255, N-[3-fluoro-4-({6-(methyloxy)-7-[(piperidin-4-ylmethyl)oxy]quinolin-4-yl}oxy)phenyl]-N′-[(1S)-1-phenylpropyl]ethanediamide] |  |  |  |  |  | < 50 | 50 to 500 |  | 50 to 500 | 500 to 5000 | 
18 | COc1cc2c(Oc3ccc(NC(=O)C(=O)NCc4cc(C(F)(F)F)cc(C(F)(F)F)c4)cc3F)ccnc2cc1OCC1CCNCC1 [Example 272, N-{[3,5-bis(trifluoromethyl)phenyl]methyl}-N′-[3-fluoro-4-({6-(methyloxy)-7-[(piperidin-4-ylmethyl)oxy]quinolin-4-yl}oxy)phenyl]ethanediamide] |  |  |  |  |  | < 50 | < 50 |  | 50 to 500 | 500 to 5000 | 
19 | COc1cc2c(Oc3ccc(NC(=O)C(=O)NCc4cnccn4)cc3F)ccnc2cc1OCC1CCNCC1 [Example 273, N-[3-fluoro-4-({6-(methyloxy)-7-[(piperidin-4-ylmethyl)oxy]quinolin-4-yl}oxy)phenyl]-N′-(pyrazin-2-ylmethyl)ethanediamide] |  |  |  |  |  | 50 to 500 | 500 to 5000 |  | 50 to 500 | 500 to 5000 | 
20 | COc1cc2nccc(Oc3ccc(NC(=O)C4(C(=O)Nc5ccc(F)cc5)CC4)cc3)c2cc1OC [Example 289, N-(4-{[6,7-bis(methyloxy)quinolin-4-yl]oxy}phenyl)-N′-(4-fluorophenyl)cyclopropane-1,1-dicarboxamide] |  |  |  |  |  |  |  |  |  |  | 5.58
21 | COc1cc2nccc(Oc3ncc(NC(=O)C4(C(=O)Nc5ccccc5)CC4)cc3Cl)c2cc1OC [Example 305, N-(6-{[6,7-bis(methyloxy)quinolin-4-yl]oxy}-5-chloropyridin-3-yl)-N′-phenylcyclopropane-1,1-dicarboxamide] | 50 to 500 |  | < 50 | 50 to 500 | < 50 |  |  |  |  |  | 
22 | COc1cc2nccc(Oc3ccc(NC(=O)C4(C(=O)Nc5ccc(F)cc5)CC4)cc3F)c2cc1OC [Example 319, N-(4-{[6,7-bis(methyloxy)quinolin-4-yl]oxy}-3-fluorophenyl)-N′-(4-fluorophenyl)cyclopropane-1,1-dicarboxamide] |  | < 50 |  | < 50 | < 50 |  |  |  |  |  | 
23 | COc1cc2c(Oc3ccc(NC(=O)C4(C(=O)Nc5ccc(F)cc5)CC4)cc3)ccnc2cc1OCCCN1CCOCC1 [Example 335, N-(4-fluorophenyl)-N′-[4-({6-(methyloxy)-7-[(3-morpholin-4-ylpropyl)oxy]quinolin-4-yl}oxy)phenyl]cyclopropane-1,1-dicarboxamide] | < 50 | < 50 |  | < 50 | < 50 |  |  |  |  |  | 
